Assay results from US12059420B2 (BRISTOL-MYERS SQUIBB COMPANY, priority 2018, dated 2024).

Molecular target: T1, human IDO1 (Homo sapiens, UniProt P14902)
T1 construct: expressed in transfected cells
Assay: IDO inhibition assay in HEK293 cells stably expressing human IDO1 (kynurenine production, Ehrlich reagent, absorbance 490 nm)
Type: cell-based
Conditions: 20 hours incubation with compound, 500 nM reference standard = 100% inhibition, read-out: IDO1 HEK Human IC50
Summary of the method: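 HEK293 clones stably expressing human IDO1 (10,000 cells/well, phenol red-free RPMI, 10% FBS) were treated with compound for 20 hours at 37° C. After 0.2% TCA and 30 min at 50° C., kynurenine was read with Ehrlich reagent at 490 nm. IC50 was normalised to DMSO (0%) and 500 nM reference standard (100%).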

T1 sequence (P14902 whole entry): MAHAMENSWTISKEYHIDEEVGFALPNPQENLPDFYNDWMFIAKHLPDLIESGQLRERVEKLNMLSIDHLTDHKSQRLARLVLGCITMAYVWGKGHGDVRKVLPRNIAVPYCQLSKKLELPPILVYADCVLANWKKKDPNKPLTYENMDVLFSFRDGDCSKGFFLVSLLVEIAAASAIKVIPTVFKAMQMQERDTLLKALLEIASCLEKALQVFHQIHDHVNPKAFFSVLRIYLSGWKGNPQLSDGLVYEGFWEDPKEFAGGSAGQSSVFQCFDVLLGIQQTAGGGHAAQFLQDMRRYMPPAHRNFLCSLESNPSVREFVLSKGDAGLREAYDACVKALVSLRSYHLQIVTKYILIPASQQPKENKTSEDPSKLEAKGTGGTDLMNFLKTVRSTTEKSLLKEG

| IC50 | SMILES |
| --- | --- |
| 393 nM | Cc1cccnc1Nc1cc(-c2ccccc2-c2nnn[nH]2)nc(N(Cc2ccccc2)CC(C)C)c1 [Example 168, 6-(2-(1H-tetrazol-5-yl)phenyl)-N2-benzyl-N2-isobutyl-N4-(3-methylpyridin-2-yl)pyridine-2,4-diamine] |
| 11.1 nM | CC(C)CN(Cc1ccccc1)c1cc(Nc2ccc(F)c(Cl)c2)cc(-c2ccccc2-c2nnn[nH]2)n1 [Example 169, 6-(2-(1H-tetrazol-5-yl)phenyl)-N2-benzyl-N4-(3-chloro-4-fluorophenyl)-N2-isobutylpyridine-2,4-diamine] |
| 4.9 nM | CC(C)CN(Cc1ccccc1)c1cc(Nc2ccc(F)cc2)cc(-c2ccccc2-c2nnn[nH]2)n1 [Example 170, 6-(2-(1H-tetrazol-5-yl)phenyl)-N2-benzyl-N4-(4-fluorophenyl)-N2-isobutylpyridine-2,4-diamine] |
| 1.1 nM | CC(C)CN(Cc1ccccc1)c1cc(Nc2ccc(Cl)cc2)cc(-c2ccccc2-c2nnn[nH]2)n1 [Example 171, 6-(2-(1H-tetrazol-5-yl)phenyl)-N2-benzyl-N4-(4-chlorophenyl)-N2-isobutylpyridine-2,4-diamine] |
| 14.4 nM | COc1cnc(Nc2cc(-c3ccccc3-c3nnn[nH]3)nc(N(Cc3ccccc3)CC(C)C)c2)nc1 [Example 172, 6-(2-(1H-tetrazol-5-yl)phenyl)-N2-benzyl-N2-isobutyl-N4-(5-methoxypyrimidin-2-yl)pyridine-2,4-diamine] |
| 259 nM | CC(C)CN(Cc1ccccc1)c1cc(Nc2ncnc3[nH]ccc23)cc(-c2ccccc2-c2nnn[nH]2)n1 [Example 173, 6-(2-(1H-tetrazol-5-yl)phenyl)-N2-benzyl-N2-isobutyl-N4-(7H-pyrrolo[2,3-d]pyrimidin-4-yl)pyridine-2,4-diamine] |
| 16.5 nM | CC(C)CN(Cc1ccccc1)c1cc(Nc2ccc(Cl)cc2Cl)cc(-c2ccccc2-c2nnn[nH]2)n1 [Example 174, 6-(2-(1H-tetrazol-5-yl)phenyl)-N2-benzyl-N4-(2,4-dichlorophenyl)-N2-isobutylpyridine-2,4-diamine] |
| 54.9 nM | Cc1cc(F)ccc1Nc1cc(-c2ccccc2-c2nnn[nH]2)nc(N(Cc2ccccc2)CC(C)C)c1 [Example 175, 6-(2-(1H-tetrazol-5-yl)phenyl)-N2-benzyl-N4-(4-fluoro-2-methylphenyl)-N2-isobutylpyridine-2,4-diamine] |

More lines, now with the values behind:

| SMILES | IC50 |
| --- | --- |
| CC(C)CN(Cc1ccccc1)c1cc(Nc2ccc(C#N)cn2)cc(-c2ccccc2-c2nnn[nH]2)n1 [Example 150, 6-((2-(2-(1H-tetrazol-5-yl)phenyl)-6-(benzyl(isobutyl)amino)pyridin-4-yl)amino)nicotinonitrile] | 23.9 nM |
| CC(C)CN(Cc1ccccc1)c1cc(Nc2nc(C(F)(F)F)ccc2F)cc(-c2ccccc2-c2nnn[nH]2)n1 [Example 151, 6-(2-(1H-tetrazol-5-yl)phenyl)-N2-benzyl-N4-(3-fluoro-6-(trifluoromethyl)pyridin-2-yl)-N2-isobutylpyridine-2,4-diamine] | 279 nM |
| Cc1cc(F)cnc1Nc1cc(-c2ccccc2-c2nnn[nH]2)nc(N(Cc2ccccc2)CC(C)C)c1 [Example 152, 6-(2-(1H-tetrazol-5-yl)phenyl)-N2-benzyl-N4-(5-fluoro-3-methylpyridin-2-yl)-N2-isobutylpyridine-2,4-diamine] | 129 nM |
| CC(C)CN(Cc1ccccc1)c1cc(Nc2ccc3ccccc3n2)cc(-c2ccccc2-c2nnn[nH]2)n1 [Example 154, 6-(2-(1H-tetrazol-5-yl)phenyl)-N2-benzyl-N2-isobutyl-N4-(quinolin-2-yl)pyridine-2,4-diamine] | 54 nM |
| CC(C)CN(Cc1ccccc1)c1cc(Nc2ccnc3ccnn23)cc(-c2ccccc2-c2nnn[nH]2)n1 [Example 155, 6-(2-(1H-tetrazol-5-yl)phenyl)-N2-benzyl-N2-isobutyl-N4-(pyrazolo[1,5-a]pyrimidin-7-yl)pyridine-2,4-diamine] | 131 nM |
| CC(C)CN(Cc1ccccc1)c1cc(Nc2nc3ccc(F)cc3s2)cc(-c2ccccc2-c2nnn[nH]2)n1 [Example 156, 6-(2-(1H-tetrazol-5-yl)phenyl)-N2-benzyl-N4-(6-fluorobenzo[d]thiazol-2-yl)-N2-isobutylpyridine-2,4-diamine] | 115 nM |
| Cc1ccc(Nc2cc(-c3ccccc3-c3nnn[nH]3)nc(N(Cc3ccccc3)CC(C)C)c2)nn1 [Example 157, 6-(2-(1H-tetrazol-5-yl)phenyl)-N2-benzyl-N2-isobutyl-N4-(6-methylpyridazin-3-yl)pyridine-2,4-diamine] | 540 nM |
| CC(C)CN(Cc1ccccc1)c1cc(Nc2ncc(C(C)C)cn2)cc(-c2ccccc2-c2nnn[nH]2)n1 [Example 158, 6-(2-(1H-tetrazol-5-yl)phenyl)-N2-benzyl-N2-isobutyl-N4-(5-isopropylpyrimidin-2-yl)pyridine-2,4-diamine] | 444 nM |
| CC(C)CN(Cc1ccccc1)c1cc(Nc2ncc(C(N)=O)cc2F)cc(-c2ccccc2-c2nnn[nH]2)n1 [Example 159, 6-((2-(2-(1H-tetrazol-5-yl)phenyl)-6-(benzyl(isobutyl)amino)pyridin-4-yl)amino)-5-fluoronicotinamide] | 275 nM |
| CC(C)CN(Cc1ccccc1)c1cc(Nc2cccnc2F)cc(-c2ccccc2-c2nnn[nH]2)n1 [Example 160, 6-(2-(1H-tetrazol-5-yl)phenyl)-N2-benzyl-N4-(2-fluoropyridin-3-yl)-N2-isobutylpyridine-2,4-diamine] | 23.4 nM |
| Cc1nc2ccc(Nc3cc(-c4ccccc4-c4nnn[nH]4)nc(N(Cc4ccccc4)CC(C)C)c3)cc2s1 [Example 161, 6-(2-(1H-tetrazol-5-yl)phenyl)-N2-benzyl-N2-isobutyl-N4-(2-methylbenzo[d]thiazol-6-yl)pyridine-2,4-diamine] | 2.1 nM |
| CCc1cnc(Nc2cc(-c3ccccc3-c3nnn[nH]3)nc(N(Cc3ccccc3)CC(C)C)c2)nc1 [Example 162, 6-(2-(1H-tetrazol-5-yl)phenyl)-N2-benzyl-N4-(5-ethylpyrimidin-2-yl)-N2-isobutylpyridine-2,4-diamine] | 26.2 nM |
| CC(C)CN(Cc1ccccc1)c1cc(Nc2ncccc2C#N)cc(-c2ccccc2-c2nnn[nH]2)n1 [Example 163, 2-((2-(2-(1H-tetrazol-5-yl)phenyl)-6-(benzyl(isobutyl)amino)pyridin-4-yl)amino)nicotinonitrile] | 736 nM |
| CC(C)CN(Cc1ccccc1)c1cc(Nc2cnc(Cl)nc2)cc(-c2ccccc2-c2nnn[nH]2)n1 [Example 164, 6-(2-(1H-tetrazol-5-yl)phenyl)-N2-benzyl-N4-(2-chloropyrimidin-5-yl)-N2-isobutylpyridine-2,4-diamine] | 7.9 nM |
| CC(C)CN(Cc1ccccc1)c1cc(Nc2ccc3nncn3n2)cc(-c2ccccc2-c2nnn[nH]2)n1 [Example 165, 6-(2-(1H-tetrazol-5-yl)phenyl)-N4-([1,2,4]triazolo[4,3-b]pyridazin-6-yl)-N2-benzyl-N2-isobutylpyridine-2,4-diamine] | 1120 nM |
| CC(C)CN(Cc1ccccc1)c1cc(Nc2ccc(C(=O)O)cc2F)cc(-c2ccccc2-c2nnn[nH]2)n1 [Example 166, 4-((2-(2-(1H-tetrazol-5-yl)phenyl)-6-(benzyl(isobutyl)amino)pyridin-4-yl)amino)-3-fluorobenzoic acid] | 4050 nM |
| Cc1nccnc1Nc1cc(-c2ccccc2-c2nnn[nH]2)nc(N(Cc2ccccc2)CC(C)C)c1 [Example 167, 6-(2-(1H-tetrazol-5-yl)phenyl)-N2-benzyl-N2-isobutyl-N4-(3-methylpyrazin-2-yl)pyridine-2,4-diamine] | 206 nM |
